From US20100261246A1, “METHOD FOR INHIBITING TELOMERASE REACTION” (PANASONIC CORPORATION, priority 2009, published 2010) come the findings set out here.

Experiment [1] concerns G-quadruplex structure (human telomeric oligo DNA). Nature of the experiment: Absorbance 480 to 800 nm of phthalocyanine mixed with G-quadruplex solutions. The format is binding. The note with it: 15 μM compound solution, 50 mM HEPES, 100 mM NaCl, pH7. The protocol: Hereinafter, the interaction between anionic phthalocyanines and various DNAs was studied in Examples 6, 7, 8 and 9. For this purpose, a solution containing a G-quadruplex structure, a solution including a single-stranded DNA, and a solution containing a double-stranded DNA were first prepared according to the following procedures.
A solution of 50 mM HEPES and 100 mM NaCl, pH7 (total volume: 100 μL) containing a single-stranded DNA consisting of a sequence of 5′-[…]-3′ (SEQ ID NO: 2; this sequence being similar to a sequence of a human telomere portion, and thus the DNA referred to as “human telomeric oligo DNA” hereafter) was incubated at 90° C. for 5 min, and thereafter cooled to 0° C. at a rate of temperature fall of 2° C./min, followed by finally incubating at 0° C. for 2 hrs.
The concentrations of the human telomeric oligo DNA contained in the solution were 0, 0.5, 2, 5, 10, 25, 50 and 100 μM.
The absolute values of the positive and negative peaks were maximized for the solution having the human telomeric oligo DNA concentration of 100 μM, and dropped in the order of 50, 25, 10, 5, 2 and 0.5 μM. […] Hereafter, G-quadruplex solutions prepared from the solutions having human telomeric oligo DNA concentrations of 100, 50, 25, 10, 5, 2 and 0.5 μM are referred to as G-quadruplex solutions A, B, C, D, E, F and G, respectively. On the other hand, the solution without the human telomeric oligo DNA contained therein is referred to as NC solution.
First, a solution of 50 mM HEPES and 100 mM NaCl, pH7 (total volume: 20 μL) containing 15 μM CuPC was prepared. Then, this CuPC solution was mixed with each of the G-quadruplex solutions C, D, E and F and the NC solution, and the absorbance of these liquid mixtures were measured at 480 to 800 nm.
First, a solution of 50 mM HEPES and 100 mM NaCl, pH7 (total volume: 20 μL) containing 15 μM NiPC was prepared. Then, this NiPC solution was mixed with each of the G-quadruplex solutions D, E, F and G, and the NC solution, and the absorbance of these liquid mixtures were measured at 480 to 800 nm.
First, a solution of 50 mM HEPES and 100 mM NaCl, pH7 (total volume: 20 μL) containing 15 μM PC was prepared. Then, this PC solution was mixed with each of the G-quadruplex solutions D, E, F and G, and the NC solution, and the absorbance of these liquid mixtures were measured at 480 to 800 nm.
First, a solution of 50 mM HEPES and 100 mM NaCl, pH7 (total volume: 20 μL) containing 15 μM CoPC was prepared. Then, this CoPC solution was mixed with each of the G-quadruplex solutions B, C, D and G, and the NC solution, and the absorbance of these liquid mixtures were measured at 480 to 800 nm.

The subject of experiment [2] is telomerase. Nature of the experiment: Telomerase reaction carried out first, then PCR of the diluted reaction solution, gel electrophoresis, with or without λDNA. The format is biochemical. The note with it: final concentrations 0.1 to 10 μM. Here is the method:
(§1) Moreover, effects of inhibiting telomerase by TMPyP and anionic phthalocyanines were compared in Comparative Example 3 and Example 4 to 5 below. In these experiments, the S7700 kit was used similarly to the aforementioned Comparative Examples 1 to 2 and Examples 1 to 3. However, in Comparative Examples 1 to 2 and Examples 1 to 3 described above, the reagents required only for the telomerase reaction and PCR were all mixed first, and the telomerase reaction and PCR were carried out sequentially by regulating the reaction temperature. To the contrary, in the following Comparative Example 3 and Examples 4 to 5, only the reagents required for the telomerase reaction were first mixed to carry out a telomerase reaction, and a part of the reaction solution and the reagents required for the PCR were mixed to carry out the PCR.
In addition, in each of the following Comparative Example 3 and Examples 4 to 5, experiments were carried out with or without addition of a λDNA in the telomerase reaction. Addition of the λDNA was intended to reproduce for mimicking the conditions in which a large amount of double-stranded DNAs are present as in the case of genomic DNAs in cells, and to study the effects of inhibiting telomerase by TMPyP or anionic phthalocyanines even under conditions more approximate to those in vivo, by adding a λDNA.
Telomerase reaction solution in a total volume of 10 μL were prepared by mixing 1 μL of 10× TRAP Reaction buffer, 0.2 μL of 50× dNTP Mix, 0.2 μL of TS primer, 4 μL of the telomerase solution prepared in Comparative Example 1, 2 μL of the TMPyP aqueous solution, and 2.6 μL of milliQ water (the reaction solutions having final TMPyP concentrations of 0 M, 0.1 μM, 0.3 μM, 1 μM, 3 μM and 10 μM were prepared, respectively). Then, the reaction solutions were stood under a condition of 30° C. for 60 min to allow a telomerase reaction to be carried out.
(§2) Next, 4 μL of a solution prepared by diluting the solution after the telomerase reaction 20 times with milliQ water, 0.2 μL of 50× dNTP Mix, 0.2 μL of TS primer, 0.2 μL of Primer Mix, 0.1 μL of TaKaLa LA Taq Hot Start Version (manufactured by Takara Bio Inc.), 1 μL of 10× LA PCR buffer II (Mg^2+ plus) (buffer solution included in TaKaLa LA Taq Hot Start Version), and 4.3 μL of milliQ water were mixed to prepare a PCR solution in a total volume of 10 μL. Then, PCR was carried out by allowing this PCR solution to stand under temperature conditions in which a thermo cycle of: 30 sec at 95° C.; 30 sec at 59° C.; and 30 sec at 72° C. was repeated 30 times.
(§3) Finally, the solution after the PCR was electrophoresed on a 10% polyacrylamide gel, and stained with GelStar Nucleic Acid Stain (manufactured by Takara Bio Inc.). […] In the order from the leftmost lane, the results with final concentrations of TMPyP being 0 M, 0.1 μM, 0.3 μM, 1 μM, 3 μM and 10 μM are shown.
On the other hand, experiments in which a λDNA was added to the telomerase reaction solution were also carried out. More specifically, in preparing the telomerase reaction solution described above, 2.6 μL of a λDNA solution (manufactured by Takara Bio Inc.) was mixed in place of mixing 2.6 μL of milliQ water. Other telomerase reaction temperature/time schedule, PCR solution preparation condition, PCR temperature/time schedule, electrophoresis condition were just the same.

Experiment [3] deals with TaKaLa LA Taq Hot Start Version (polymerase reaction). Nature of the experiment: PCR control band in the separate telomerase reaction / PCR experiment. The format is biochemical. The settings on record: 10 μM, no addition of λDNA. The protocol: as §1, §2, §3

telomerase, sequence (O14746 whole entry): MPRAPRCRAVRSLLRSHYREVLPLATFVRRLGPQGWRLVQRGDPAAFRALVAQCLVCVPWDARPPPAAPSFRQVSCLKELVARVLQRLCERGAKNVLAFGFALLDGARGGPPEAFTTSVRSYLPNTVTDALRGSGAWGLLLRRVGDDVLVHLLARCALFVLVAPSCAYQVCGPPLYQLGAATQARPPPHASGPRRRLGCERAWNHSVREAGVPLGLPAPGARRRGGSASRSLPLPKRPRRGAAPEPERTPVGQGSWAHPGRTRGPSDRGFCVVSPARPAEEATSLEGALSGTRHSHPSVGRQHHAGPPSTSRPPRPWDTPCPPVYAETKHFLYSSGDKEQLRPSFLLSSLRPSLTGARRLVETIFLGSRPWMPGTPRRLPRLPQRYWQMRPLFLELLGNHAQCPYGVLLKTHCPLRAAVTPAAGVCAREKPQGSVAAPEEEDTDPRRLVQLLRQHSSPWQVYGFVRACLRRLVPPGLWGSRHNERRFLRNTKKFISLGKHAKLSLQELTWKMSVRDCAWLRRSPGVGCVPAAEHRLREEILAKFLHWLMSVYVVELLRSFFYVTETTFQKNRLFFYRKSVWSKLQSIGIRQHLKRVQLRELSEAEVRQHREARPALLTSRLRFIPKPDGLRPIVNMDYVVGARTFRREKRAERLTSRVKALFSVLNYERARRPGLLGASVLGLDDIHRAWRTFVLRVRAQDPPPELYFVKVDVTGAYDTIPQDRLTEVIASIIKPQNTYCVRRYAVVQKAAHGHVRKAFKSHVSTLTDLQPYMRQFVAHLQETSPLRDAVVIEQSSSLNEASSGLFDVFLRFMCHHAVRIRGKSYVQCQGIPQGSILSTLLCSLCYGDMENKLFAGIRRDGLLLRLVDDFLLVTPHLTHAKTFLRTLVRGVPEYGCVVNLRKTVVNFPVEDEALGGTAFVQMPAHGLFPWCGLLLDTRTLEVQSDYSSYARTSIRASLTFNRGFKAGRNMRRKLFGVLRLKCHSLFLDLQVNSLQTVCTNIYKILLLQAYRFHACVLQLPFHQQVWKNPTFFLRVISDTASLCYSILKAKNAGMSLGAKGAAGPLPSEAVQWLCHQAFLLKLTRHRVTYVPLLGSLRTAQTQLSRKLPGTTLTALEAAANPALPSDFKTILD

Regarding “Copper(II) phthalocyanine-3,4′,4″,4′″-tetrasulfonic acid tetrasodium salt [CuPC]”, in experiment [1], the “interaction with the G-quadruplex structure (absorption peak)” value is “an interaction occurred”. Moreover, the “inhibition of the telomerase reaction (band of telomerase reaction product)” value is given as “can efficiently inhibit the telomerase reaction” in experiment [2] (in the presence of λDNA) and “inhibited with higher concentration” in experiment [2] (no addition of λDNA). In addition, the “amplification of the PCR control (band)” value in experiment [3] is on record as “not inhibited”.

“Nickel(II) phthalocyanine tetrasulfonic acid tetrasodium salt [NiPC]”: the “interaction with the G-quadruplex structure (absorption peak)” value in experiment [1] is listed as “an interaction occurred”. The “inhibition of the telomerase reaction (band of telomerase reaction product)” value is recorded as “can efficiently inhibit the telomerase reaction” in experiment [2] (in the presence of λDNA) and “inhibited with higher concentration” in experiment [2] (no addition of λDNA). The “amplification of the PCR control (band)” value in experiment [3] is “not inhibited”.
